Measurements from patent publication US20260000672A1, “HISTONE DEACETYLASE INHIBITORS FOR USE IN IMMUNOTHERAPY” (Viracta Subsidiary, Inc., priority 2016, published 2026).

Experiments:
mouse fibroblasts = settings: cited from earlier work
[1] = test system: breast cancer cell line MCF-7; settings: cited from earlier work
BALB/c splenocytes = experiment: FACS analysis of BALB/c splenocytes after 24 hours with test agents; format: cell-based, mouse; settings: for CD45+ CD3+ CD4+ / CD45+ CD3+ CD4+ CD25+ / CD45+ CD3+ CD4+ FoxP3+ / CD45+ CD3+ CD4+ FoxP3+, CD25+ / CD45+ CD3+ CD4+ FoxP3+, CD25− / CD45+ CD3+ CD4+ FoxP3− CD25+ / CD45± / Live / CD45+ CD3+: 24 hours
Text: FACS analysis consisted of the following markers: live/dead, CD45, CD3, CD4, CD25 and FOXP3.

[2] = 1 uM, n=5, mean (SD in the line below)

SMILES: CCCC(=O)O [butyrate]
- cell cycle (mouse fibroblasts): block the cell cycle in the G1 phase
- cellular proliferation [1]: induces a block in cellular proliferation

SMILES: Nc1ccccc1NC(=O)c1ccc(CNC(=O)OCc2cccnc2)cc1 [Entinostat, reference compound]
- CD45+ CD3+ CD4+ (BALB/c splenocytes; 1 uM, n=5): 38.5%
- CD45+ CD3+ CD4+ CD25+ (BALB/c splenocytes; 1 uM, n=5): 10.4%
- CD45+ CD3+ CD4+ FoxP3+ (BALB/c splenocytes; 1 uM, n=5): 10.1%
- CD45+ CD3+ CD4+ FoxP3+, CD25+ (BALB/c splenocytes; 1 uM, n=5): 5.12%
- CD45+ CD3+ CD4+ FoxP3+, CD25− (BALB/c splenocytes; 1 uM, n=5): 2.33%
- CD45+ CD3+ CD4+ FoxP3− CD25+ (BALB/c splenocytes; 1 uM, n=5): 4.57%
- CD45± (BALB/c splenocytes; 1 uM, n=5): 99.1%
- Live (BALB/c splenocytes; [2]): 97.6%

SMILES: O=C(NO)c1cnc(N2CC3C(C2)C3NCc2ccc3cc(F)ccc3n2)nc1 (stereo not shown) [VRx-3996, 2-(6-{[(6-Fluoroquinolin-2-yl)methyl]amino}-3-azabicyclo[3.1.0]hex-3-yl)-N-hydroxypyrimidine-5-carboxamide]
- CD45+ CD3+ (BALB/c splenocytes; 1 nM, n=5): 46.9%
- CD45+ CD3+ CD4+ (BALB/c splenocytes; 1 nM, n=5): 32.4%
- CD45+ CD3+ CD4+ CD25+ (BALB/c splenocytes; 1 nM, n=5): 7.93%
- CD45+ CD3+ CD4+ FoxP3+ (BALB/c splenocytes; 1 nM, n=5): 12%
- CD45+ CD3+ CD4+ FoxP3+, CD25+ (BALB/c splenocytes; 1 nM, n=5): 6.2%
- CD45+ CD3+ CD4+ FoxP3+, CD25− (BALB/c splenocytes; 1 nM, n=5): 4.47%
- CD45+ CD3+ CD4+ FoxP3− CD25+ (BALB/c splenocytes; 1 nM, n=5): 1.14%
- CD45± (BALB/c splenocytes; 1 nM, n=5): 98.6%
- Live (BALB/c splenocytes; 1 nM, n=5): 98.4%
- CD45+ CD3+ (BALB/c splenocytes; 100 nM, n=5): 94%
- CD45+ CD3+ CD4+ (BALB/c splenocytes; 100 nM, n=5): 75.3%
- CD45+ CD3+ CD4+ CD25+ (BALB/c splenocytes; 100 nM, n=5): 1.89%
- CD45+ CD3+ CD4+ FoxP3+ (BALB/c splenocytes; 100 nM, n=5): 1.62%
- CD45+ CD3+ CD4+ FoxP3+, CD25+ (BALB/c splenocytes; 100 nM, n=5): 0.064%
- CD45+ CD3+ CD4+ FoxP3+, CD25− (BALB/c splenocytes; 100 nM, n=5): 0.34%
- CD45+ CD3+ CD4+ FoxP3− CD25+ (BALB/c splenocytes; 100 nM, n=5): 1.22%
- CD45± (BALB/c splenocytes; 100 nM, n=5): 99.6%
- Live (BALB/c splenocytes; 100 nM, n=5): 91.4%
- CD45+ CD3+ (BALB/c splenocytes; 500 nM, n=5): 94%
- CD45+ CD3+ CD4+ (BALB/c splenocytes; 500 nM, n=5): 80.6%
- CD45+ CD3+ CD4+ CD25+ (BALB/c splenocytes; 500 nM, n=5): 3.03%
- CD45+ CD3+ CD4+ FoxP3+ (BALB/c splenocytes; 500 nM, n=5): 2.36%
- CD45+ CD3+ CD4+ FoxP3+, CD25+ (BALB/c splenocytes; 500 nM, n=5): 0.22%
- CD45+ CD3+ CD4+ FoxP3+, CD25− (BALB/c splenocytes; 500 nM, n=5): 0.47%
- CD45+ CD3+ CD4+ FoxP3− CD25+ (BALB/c splenocytes; 500 nM, n=5): 1.69%
- CD45± (BALB/c splenocytes; 500 nM, n=5): 99.5%
- Live (BALB/c splenocytes; 500 nM, n=5): 87.2%
- CD45+ CD3+ (BALB/c splenocytes; 1 uM, n=5): 94.7%
- CD45+ CD3+ CD4+ (BALB/c splenocytes; 1 uM, n=5): 82.2%
- CD45+ CD3+ CD4+ CD25+ (BALB/c splenocytes; 1 uM, n=5): 3.57%
- CD45+ CD3+ CD4+ FoxP3+ (BALB/c splenocytes; 1 uM, n=5): 3.85%
- CD45+ CD3+ CD4+ FoxP3+, CD25+ (BALB/c splenocytes; 1 uM, n=5): 0.14%
- CD45+ CD3+ CD4+ FoxP3+, CD25− (BALB/c splenocytes; 1 uM, n=5): 0.8%
- CD45+ CD3+ CD4+ FoxP3− CD25+ (BALB/c splenocytes; 1 uM, n=5): 1.96%
- CD45± (BALB/c splenocytes; 1 uM, n=5): 99.6%
- Live (BALB/c splenocytes; [2]): 84.7%
- reduction in FoxP3, CD25+ T cells (BALB/c splenocytes; compared to entinostat at 1 μM): ~47 fold
- concentration at which the suppressive effect on FoxP3+, CD25+ T cells was seen (BALB/c splenocytes; seen at least as low as): ≤ 100 nM
- effect on CD4+, CD25+, and FoxP3+ regulatory cells (BALB/c splenocytes; striking when compared to entinostat): specifically reduces
